Columns and labels:
Format in all cases: in vivo, human
humans [1] = assay: Part 2: body weight and food consumption (visual analogue scale questionnaires)
Protocol: (§1) For the second part of the study, […] subjects were divided into […]. Each group was dosed with a single daily dose of 10, 30, 100, or 150 mg oleoyl-estrone for a seven day period. Each individual in the group of 4 was randomized to oleoyl-estrone or placebo.
(§2) Subjects under went a physical examination to establish height, weight, BMI and baseline signs and symptoms. Electrocardiograms and vital signs were taken. Blood for evaluation of hematology, coagulation and clinical chemistry and urine for urinalysis were obtained for each subject. Samples were also taken for hormone analysis, including estrone, estradiol and testosterone. Food-intake and motivation-to-eat using visual analogue scale questionnaires were analyzed.
(§3) Males and post-menopausal females were recruited in both parts of the study. The trial protocol provided that patients should maintain a normal diet and level of activity, but required that patients abstain from consuming alcohol. At baseline, in the placebo group me mean patient weight was 100.5±4.9 kg and BMI 34.4±3.5 and in the oleoyl-estrone group the weight was 100.5±17.8 kg and the average BMI was 34±4.2. The results discussed below are from the second part of the study.

[2] = Part 2: pharmacokinetics, plasma concentration of oleoyl-estrone; details: for Cmax: 100 mg, 100 mg group (highest)
Protocol: as §1, §2, §3

humans [3] = assay: Part 2: seven-day daily oral dose safety and tolerability study in humans
Protocol: (§4) A two-part study was conducted to evaluate the safety, tolerability, and pharmacokinetic (PK) profiles of single and multiple doses of oleoyl-estrone in humans.
as §1, §2, §3

humans [4] = assay: Part 2: hematology and clinical chemistry (white blood cells, lipids, glucose)
Protocol: as §1, §2, §3

humans [5] = assay: Part 1: single oral dose safety and tolerability study of oleoyl-estrone in humans; details: one-time single oral dose
Protocol: as §4
For the first part of the study, thirty-six subjects where divided into groups of six. Each group was dosed with a single dose of 1, 3, 10, 30, 100, or 150 mg of oleoyl-estrone. Each individual in the group of 6 was randomized to oleoyl-estrone or placebo in a ratio of 2:1 where for every two individuals given oleoyl-estrone one is given a placebo.
as §2, with “testosterone.” for “testosterone. Food-intake and motivation-to-eat using visual analogue scale questionnaires were analyzed.”

humans [6] = assay: Part 2: hormone levels (estrone, estradiol, testosterone, LH, leptin, CRP); details: 7 days daily oral dosing
Protocol: as §1, §2, §3

[7] = oleoyl-estrone treated group, 7 days daily oral dosing

## CCCCCCCC/C=C\CCCCCCCC(=O)Oc1ccc2c(c1)CC[C@@H]1[C@@H]2CC[C@]2(C)C(=O)CC[C@@H]12 [oleoyl-estrone, [3(Z)]-3-[(1-oxo-9-octadecenyl)oxy]-estra-1,3,5(10)-trien-17-one]
Humans [1]; 10-150 mg daily for 7 days
  dose dependence of VAS scores and loss of weight: more or less dose-dependent, with maximal effects in the 30 mg and 100 mg groups
Humans [1]; 7 days daily oral dosing
  feelings of hunger, satiety and prospective food consumption (VAS): consistently demonstrated reductions
Humans [1]; Day 28
  weight loss compared to placebo: greater and maintained
[2]; 10-150 mg daily oral, assay of limited sensitivity
  plasma concentration of oleoyl-estrone versus administered dose level: did not increase with the administered dose level
[2]; Day 7 relative to Day 1, daily oral dosing for 7 consecutive days
  accumulation in plasma: no clear accumulation in plasma
[2]; both sexes, human, plasma, oral, Day 1
  Cmax: 2.4 ng/mL
[2]; both sexes, human, plasma, oral, Day 7
  Cmax: 3.2 ng/mL
[2]; both sexes, human, plasma, oral, Day 1, across dose groups, read-out: oleoyl-estrone plasma levels
  concentration at 1 day: 0.3 to 2.4 ng/mL
[2]; both sexes, human, plasma, oral, Day 7, across dose groups, read-out: oleoyl-estrone plasma levels
  concentration at 7 day: 0.3 to 3 ng/mL
[2]; males and post-menopausal females
  sex differences in plasma concentration-time profiles: no clear differences between the sexes
Humans [3]; 7 days daily oral dosing
  changes in physical examinations, vital signs, ECGs, coagulation or liver function tests: no clinically significant changes
Humans [3]; oleoyl-estrone study volunteers, similar episode 6 months prior to dosing
  post-menopausal bleeding: one had post-menopausal bleeding
Humans [3]; [7]
  adverse effect: back pain (n affected/n treated): 4/17
  adverse effect: diarrhea (n affected/n treated): 3/17
  adverse effect: headache (n affected/n treated): 3/17
Humans [3]; single daily oral dose 10-150 mg for seven days, humans
  safety and tolerability: safe, well tolerated at oral doses up to 150 mg
Humans [3]; single daily oral dose up to 150 mg for seven days, humans
  serious adverse events: no serious adverse events were noted
Humans [4]; 7 days daily oral dosing
  mean HDL cholesterol: increased
  mean LDL cholesterol: decreased
Humans [4]; 7 days daily oral dosing, even lower doses
  HDL:LDL cholesterol ratio: increase in the HDL:LDL cholesterol ratio even at the lower doses
Humans [4]; 7 days daily oral dosing, up to Day 15
  mean glucose concentration: fell in a reversible and dose dependent manner and was still low at Day 15
Humans [4]; Day 7, 100-150 mg
  total mean cholesterol: decrease at Day 7 with 100-150 mg
Humans [4]; Day 7 and Day 15
  white blood cell count: increase in white blood cell count was seen in Day 7 but returned to baseline by Day 15
Humans [4]; all doses, all days
  total mean TAGs: dose-dependent increase at all doses and on all days
Humans [5]; 1 to 150 mg
  safety and tolerability: safe, well tolerated at oral doses up to 150 mg
Humans [5]; up to 150 mg
  serious adverse events: no serious adverse events were noted
Humans [6]
  effects on LH: less clear-cut
  mean estradiol levels: elevated
  mean estrone levels: elevated
  mean testosterone levels: suppressed in a reversible and dose dependent manner
Humans [6]; to Day 15
  CRP: increased in a dose-dependent manner, returning to baseline by Day 15
  leptin: increased in a dose-dependent manner, returning to baseline by Day 15

Source: US20100286105A1, “METHODS OF TREATING HYPERANDROGENISM AND CONDITIONS ASSOCIATED THEREWITH BY ADMINISTERING A FATTY ACID ESTER OF AN ESTROGEN OR AN ESTROGEN DERIVATIVE” (priority 2006, published 2010)
